Source: PMC11178787, “Development of a natural product optimization strategy for inhibitors against MraY, a promising antibacterial target” (Nature Communications, 2024)
In brackets after ≈: the same amount, converted by molar mass.

Tests used:
in vitro = assay: in vitro; set-up: WST-8 cell viability assay in HepG2 cells; settings: human, hepg2 cells; read-out: IC50
Experimental: Cells were regularly passed to maintain exponential growth. HepG2 cells were sowed by 1.0 × 10^4 cells for each well in 96-well plate and cultured at 37 °C under 5% CO2 in air for 24 h. The cells were treated with a solution of test compounds in DMSO at various concentration and incubated at 37 °C under 5% CO2 in air for 24 h. After that, the WST-8 (Dojindo) cell proliferation assay was used. Cell viability was indicated as a percentage of the negative control (cells treated with DMSO only) and that value was fixed at 100%.

Enterococcus faecalis 22 = test system: T1, Enterococcus faecalis 22; assay: microbe, parasite or virus in culture; set-up: CLSI broth microdilution MIC in MHB-II; settings: Enterococcus faecalis, 22, 18 h, read-out: MIC
T1 construct: 22
Experimental: (§1) MICs were determined by a microdilution broth method as recommended by the CLSI with MHB-II. For MICs of stable analogues, a 2-fold dilution of each compound was prepared in DMSO at 100-fold of the final concentration. The strains were inoculated with 5 × 10^5 cfu/mL in 96-well plates (each 100 μL/well), and 1 μL of DMSO solutions of the samples were added (contained less than 1% DMSO). The plates were incubated at 37 °C for 18 h and then MICs were determined. MICs of stable analogues in Table 1 were the highest value in three trials. MICs in Supplementary Table 1 were determined in one trial.

Enterococcus faecalis 23 = test system: T2, Enterococcus faecalis 23; assay: microbe, parasite or virus in culture; set-up: CLSI broth microdilution MIC in MHB-II; settings: Enterococcus faecalis, 23, 18 h, read-out: MIC
T2 construct: 23
Experimental: as §1

Enterococcus faecalis 24 = test system: T3, Enterococcus faecalis 24; assay: microbe, parasite or virus in culture; set-up: CLSI broth microdilution MIC in MHB-II; settings: Enterococcus faecalis, 24, 18 h, read-out: MIC
T3 construct: 24
Experimental: as §1

Enterococcus faecium 11 = test system: T4, Enterococcus faecium 11; assay: microbe, parasite or virus in culture; set-up: CLSI broth microdilution MIC in MHB-II; settings: Enterococcus faecium, 11, 18 h, read-out: MIC
T4 construct: 11
Experimental: as §1

Enterococcus faecium 2 = assay: microbe, parasite or virus in culture; set-up: CLSI broth microdilution MIC in MHB-II; settings: Enterococcus faecium, 2, 18 h, read-out: MIC
Experimental: as §1

Enterococcus faecium 3 = assay: microbe, parasite or virus in culture; set-up: CLSI broth microdilution MIC in MHB-II; settings: Enterococcus faecium, 3, 18 h, read-out: MIC
Experimental: as §1

Enterococcus faecium 4 = assay: microbe, parasite or virus in culture; set-up: CLSI broth microdilution MIC in MHB-II; settings: Enterococcus faecium, 4, 18 h, read-out: MIC
Experimental: as §1

Enterococcus faecium 5 = assay: microbe, parasite or virus in culture; set-up: CLSI broth microdilution MIC in MHB-II; settings: Enterococcus faecium, 5, 18 h, read-out: MIC
Experimental: as §1

[1] = test system: T5, Staphylococcus aureus #1958; assay: microbe, parasite or virus in culture; set-up: CLSI broth microdilution MIC in MHB-II; settings: Staphylococcus aureus, 18 h, read-out: MIC
T5 construct: #1958
Experimental: as §1

[2] = test system: T6, Staphylococcus aureus #2071; assay: microbe, parasite or virus in culture; set-up: CLSI broth microdilution MIC in MHB-II; settings: Staphylococcus aureus, 18 h, read-out: MIC
T6 construct: #2071
Experimental: as §1

[3] = test system: T7, Staphylococcus aureus #2931; assay: microbe, parasite or virus in culture; set-up: CLSI broth microdilution MIC in MHB-II; settings: Staphylococcus aureus, 18 h, read-out: MIC
T7 construct: #2931
Experimental: as §1

[4] = test system: T8, Staphylococcus aureus #2310; assay: microbe, parasite or virus in culture; set-up: CLSI broth microdilution MIC in MHB-II; settings: Staphylococcus aureus, 18 h, read-out: MIC
T8 construct: #2310
Experimental: as §1

SMILES	CC50 at 24 h (in vitro) [µM]	MIC (Enterococcus faecalis 22) [µg/mL]	MIC (Enterococcus faecalis 23) [µg/mL]	MIC (Enterococcus faecalis 24) [µg/mL]	MIC (Enterococcus faecium 11) [µg/mL]	MIC (Enterococcus faecium 2) [µg/mL]	MIC (Enterococcus faecium 3) [µg/mL]	MIC (Enterococcus faecium 4) [µg/mL]	MIC (Enterococcus faecium 5) [µg/mL]	MIC [1] [µg/mL]	MIC [2] [µg/mL]	MIC [3] [µg/mL]	MIC [4] [µg/mL]
CCCCCCCCCCCCCCCC(=O)N[C@@H](CCCCN)C(=O)Nc1cccc(CN[C@H](C(=O)O)[C@H](O[C@@H]2O[C@H](CN)[C@@H](O)[C@H]2O)[C@H]2O[C@@H](n3ccc(=O)[nH]c3=O)[C@H](O)[C@@H]2O)c1 [compound 6, analogue 6]	16	0.5 (≈ 0.543 µM)	0.5 (≈ 0.543 µM)	0.5 (≈ 0.543 µM)	1 (≈ 1.09 µM)	1 (≈ 1.09 µM)	1 (≈ 1.09 µM)	0.5 (≈ 0.543 µM)	1 (≈ 1.09 µM)	1 (≈ 1.09 µM)	64 (≈ 69.6 µM)	0.5 (≈ 0.543 µM)	
CCCCCCCCCCCCCCCC(=O)N[C@@H](CCCNC(=N)N)C(=O)NCc1cccc(CN[C@H](C(=O)O)[C@H](O[C@@H]2O[C@H](CN)[C@@H](O)[C@H]2O)[C@H]2O[C@@H](n3ccc(=O)[nH]c3=O)[C@H](O)[C@@H]2O)c1 [compound 4, analogue 4]	19	0.13 (≈ 0.135 µM)	0.13 (≈ 0.135 µM)	0.13 (≈ 0.135 µM)	1 (≈ 1.04 µM)	2 (≈ 2.08 µM)	1 (≈ 1.04 µM)	0.5 (≈ 0.52 µM)	1 (≈ 1.04 µM)	2 (≈ 2.08 µM)	1 (≈ 1.04 µM)	1 (≈ 1.04 µM)	2 (≈ 2.08 µM)
CCCCCCCCCCCCCCCC(=O)N[C@@H](CCCNC(=N)N)C(=O)Nc1ccc(CN[C@H](C(=O)O)[C@H](O[C@@H]2O[C@H](CN)[C@@H](O)[C@H]2O)[C@H]2O[C@@H](n3ccc(=O)[nH]c3=O)[C@H](O)[C@@H]2O)cc1 [compound 7, analogue 7]	25	0.13 (≈ 0.137 µM)	0.5 (≈ 0.527 µM)	0.13 (≈ 0.137 µM)	2 (≈ 2.11 µM)	0.5 (≈ 0.527 µM)	1 (≈ 1.05 µM)	0.5 (≈ 0.527 µM)	0.5 (≈ 0.527 µM)	1 (≈ 1.05 µM)	1 (≈ 1.05 µM)	1 (≈ 1.05 µM)	2 (≈ 2.11 µM)
C[C@H]1COc2c(N3CCN(C)CC3)c(F)cc3c(=O)c(C(=O)O)cn1c23 [levofloxacin]		1 (≈ 2.77 µM)	1 (≈ 2.77 µM)	1 (≈ 2.77 µM)	> 32	> 32	> 32	> 32	32 (≈ 88.6 µM)	> 32	0.13 (≈ 0.36 µM)	16 (≈ 44.3 µM)	> 32
CCCCCCCCCCCCCCCC(=O)N[C@@H](CCCCN)C(=O)Nc1ccc(CN[C@H](C(=O)O)[C@H](O[C@@H]2O[C@H](CN)[C@@H](O)[C@H]2O)[C@H]2O[C@@H](n3ccc(=O)[nH]c3=O)[C@H](O)[C@@H]2O)cc1 [compound 5, analogue 5]	22	0.13 (≈ 0.141 µM)	0.13 (≈ 0.141 µM)	0.25 (≈ 0.272 µM)	0.5 (≈ 0.543 µM)	0.5 (≈ 0.543 µM)	0.5 (≈ 0.543 µM)	0.25 (≈ 0.272 µM)	0.5 (≈ 0.543 µM)	1 (≈ 1.09 µM)	0.5 (≈ 0.543 µM)	0.25 (≈ 0.272 µM)	1 (≈ 1.09 µM)
